{"source": "patent KR20210110252A", "about": "“폴리펩티드를 포함하는 비알코올성 지방간 질환의 예방 또는 치료용 약학 조성물” (㈜ 디앤디파마텍, priority 2019, dated 2021)", "key": {"글루카곤 수용체(GCGR)": {"biological_target": "T1, 글루카곤 수용체(GCGR) (Homo sapiens, UniProt P47871)", "T1 construct": "host or cells: CHO-K1", "T1 sequence (P47871 26-477)": "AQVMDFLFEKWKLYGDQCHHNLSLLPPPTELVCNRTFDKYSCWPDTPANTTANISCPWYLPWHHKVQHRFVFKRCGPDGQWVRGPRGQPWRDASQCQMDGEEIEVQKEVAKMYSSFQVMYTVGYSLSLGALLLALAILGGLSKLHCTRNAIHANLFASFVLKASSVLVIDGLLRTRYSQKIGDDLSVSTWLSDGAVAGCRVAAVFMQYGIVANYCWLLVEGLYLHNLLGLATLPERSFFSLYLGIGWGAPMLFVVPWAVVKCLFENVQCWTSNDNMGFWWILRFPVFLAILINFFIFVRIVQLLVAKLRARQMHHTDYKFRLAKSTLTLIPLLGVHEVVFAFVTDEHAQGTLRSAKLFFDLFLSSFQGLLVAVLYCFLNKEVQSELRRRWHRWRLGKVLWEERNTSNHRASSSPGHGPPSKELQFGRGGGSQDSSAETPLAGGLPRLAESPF", "assay": "Glucagon receptor activity, cAMP Hunter eXpress GCGR CHO-K1 GPCR assay", "type": "cell-based", "settings": "CHO-K1 cells with human glucagon receptor; 30 min at 37℃; cAMP production"}, "[1]": {"system": "C57BL/6 마우스, high fat diet NAFLD model", "assay": "In vivo activity 1: NAFLD model, C57BL/6 mice on 60% high fat diet for about 24 weeks", "parameters": "species or system mouse", "settings": "20 nmol/kg s.c. every second day for 2 weeks; also lower than liraglutide 100 nmol/kg daily"}, "[2]": {"system": "C57BL/6 마우스, high trans-fat diet NAFLD model", "assay": "In vivo activity 2 and 3: NAFLD model, C57BL/6 mice on high trans-fat diet (40% fat, 20% fructose, 2% cholesterol) for about 16 weeks", "parameters": "species or system mouse", "settings": "20 nmol/kg s.c. every third day for 4 weeks; also lower than liraglutide 53 nmol/kg daily"}, "[3]": {"biological_target": "GLP-1 수용체 (GLP-1 receptor) (Homo sapiens, UniProt P43220)", "sequence (P43220 24-463)": "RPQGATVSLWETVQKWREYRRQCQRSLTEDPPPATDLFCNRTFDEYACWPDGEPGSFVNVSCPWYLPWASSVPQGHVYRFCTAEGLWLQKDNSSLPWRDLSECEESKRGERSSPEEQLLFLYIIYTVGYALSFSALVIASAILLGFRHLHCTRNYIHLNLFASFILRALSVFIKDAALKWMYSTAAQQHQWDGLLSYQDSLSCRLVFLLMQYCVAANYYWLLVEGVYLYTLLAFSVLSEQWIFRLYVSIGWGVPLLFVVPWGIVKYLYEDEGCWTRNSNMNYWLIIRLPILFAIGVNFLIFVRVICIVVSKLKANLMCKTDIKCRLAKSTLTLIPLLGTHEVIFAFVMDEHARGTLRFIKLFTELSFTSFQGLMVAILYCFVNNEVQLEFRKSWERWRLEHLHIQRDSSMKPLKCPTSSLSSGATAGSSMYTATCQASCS", "settings": "read-out: GLP-1의 수용체 EC50; HEK293/CRE-Luc cells with human GLP-1 receptor; 4 h at 37℃; luciferase reporter for cAMP"}}, "note": "Where no end group is shown, it is not given here. [ ]: non-standard residue; d: D form. Aib = CC(C)(N)C(=O)O"}
{"substance": "실시예 2: 서열번호 2 H(Aib)QGTFTSDYSKYLDEQAAKEFVQWLMNTC polypeptide conjugated to 3중 가지형 mPEG-MAL(MW: 50 kDa) (H[Aib]QGTFTSDYSKYLDEQAAKEFVQWLMNTC; numbers in words are those of the source; also: conjugated to 3-branched mPEG-MAL 50 kDa, site not given here)", "values": [{"measurement": "EC50", "setting": "글루카곤 수용체(GCGR)", "value": 47, "unit": "nM"}, {"measurement": "Liver steatosis, H&E histology vs PBS-treated group (Fig. 5)", "setting": "[1]", "value": "현저하게 감소"}, {"measurement": "Liver weight vs PBS-treated group (Fig. 4)", "setting": "[1]", "value": "유의적으로 감소"}, {"measurement": "Serum cholesterol level vs PBS-treated group (Fig. 3)", "setting": "[1]", "value": "유의적으로 감소"}, {"measurement": "Hepatic triglyceride vs vehicle group (Fig. 8)", "setting": "[2]", "value": "유의적으로 감소"}, {"measurement": "Liver steatosis, H&E and oil-red-O histology vs vehicle group (Fig. 9)", "setting": "[2]", "value": "현저하게 감소"}, {"measurement": "Liver weight vs vehicle group (Fig. 7)", "setting": "[2]", "value": "유의적으로 감소"}, {"measurement": "NAFLD activity score (NAS) vs vehicle group (Fig. 10)", "setting": "[2]", "value": "유의적으로 감소"}, {"measurement": "Serum cholesterol level vs vehicle group (Fig. 6)", "setting": "[2]", "value": "유의적으로 감소"}, {"measurement": "EC50", "setting": "[3]", "value": 2.12, "unit": "nM"}]}
